# Assays:
# Plasmodium falciparum [1] = test: Resistance index, ratio of IC50 for chloroquine-resistant asexual intraerythrocytic stage of Plasmodium falciparum Dd2 to IC50 for chloroquine-sensitive asexual intraerythrocytic stage of Plasmodium falciparum NF54; format: functional
# L1210 = test: Cytotoxicity against mouse L1210 cells assessed as inhibition of cell proliferation by Coulter counter analysis; format: cell-based
# CCRF-CEM = test: Cytotoxicity against human CEM cells assessed as inhibition of cell proliferation by Coulter counter analysis; format: cell-based
# HeLa = test: Cytotoxicity against human HeLa cells assessed as inhibition of cell proliferation by Coulter counter analysis; format: cell-based
# [2] = Selectivity index, ratio of IC50 for human HeLa cells to IC50 for chloroquine-sensitive asexual intraerythrocytic stage of Plasmodium falciparum NF54; format: toxicity, cell-based; conditions: read-out: Ratio IC50
# [3] = Selectivity index, ratio of IC50 for human HeLa cells to IC50 for chloroquine-resistant asexual intraerythrocytic stage of Plasmodium falciparum Dd2; format: toxicity, cell-based; conditions: read-out: Ratio IC50
# [4] = Cytotoxicity against human HEL cells assessed as alteration of normal cell morphology by microscopic analysis; format: cell-based
# [5] = Cytotoxicity against human HEL cells assessed as inhibition of cell viability by colorimetric formazan-based MTS assay
# [6] = Cytotoxicity against human HeLa cells assessed as alteration of normal cell morphology by microscopic analysis; format: cell-based
# [7] = Cytotoxicity against african green monkey Vero cells assessed as alteration of normal cell morphology by microscopic analysis; format: cell-based; conditions: chlorocebus sabaeus
# Human alphaherpesvirus 1 [8] = format: functional, cell-based; conditions: Human alphaherpesvirus 1, KOS, HEL
# Human alphaherpesvirus 2 = format: functional, cell-based; conditions: Human alphaherpesvirus 2, G, HEL
# Human alphaherpesvirus 1 [9] = format: functional, cell-based; conditions: Human alphaherpesvirus 1, KOS, HEL; remark: listed apart in the source
# unidentified adenovirus = format: functional, cell-based; conditions: HEL
# Coxsackievirus [10] = format: functional, cell-based; conditions: B4, HeLa
# Human orthopneumovirus = format: functional, cell-based; conditions: human respiratory syncytial virus, HeLa
# Human respirovirus 3 = format: functional; conditions: Human respirovirus 3, Vero
# [11] = tested on: Mammalian orthoreovirus 1; format: functional; conditions: Mammalian orthoreovirus 1, Vero
# Sindbis virus = format: functional; conditions: Vero
# Coxsackievirus [12] = format: functional; conditions: B4, Vero
# Punta Toro virus = format: functional; conditions: Vero
# Human betaherpesvirus 5 [13] = format: functional, cell-based; conditions: Human betaherpesvirus 5, AD169, HEL
# Human betaherpesvirus 5 [14] = format: functional, cell-based; conditions: Human betaherpesvirus 5, Davis, HEL
# Human alphaherpesvirus 3 [15] = format: functional, cell-based; conditions: Human alphaherpesvirus 3, strain Oka vaccine, HEL
# Human alphaherpesvirus 3 [16] = format: functional, cell-based; conditions: Human alphaherpesvirus 3, 07-1, HEL
# [17] = Cytotoxicity against MDCK cells assessed as alteration of normal cell morphology by microscopic analysis; format: cell-based, Canis lupus familiaris; conditions: dog
# [18] = Cytotoxicity against MDCK cells assessed as inhibition of cell viability by colorimetric formazan-based MTS assay; set-up: species or system Canis lupus familiaris; conditions: dog
# Plasmodium falciparum [19] = test: microbe, parasite or virus in culture; conditions: NF54
# Plasmodium falciparum [20] = test: microbe, parasite or virus in culture; conditions: Dd2
# Vaccinia virus = test: microbe, parasite or virus in culture; conditions: Orthopoxvirus vaccinia, HEL
# [21] = tested on: Vesicular stomatitis virus; test: microbe, parasite or virus in culture; conditions: HEL
# [22] = tested on: Vesicular stomatitis virus; test: microbe, parasite or virus in culture; conditions: HeLa
# Influenza A virus [23] = test: microbe, parasite or virus in culture; conditions: H1N1, MDCK
# Influenza A virus [24] = test: microbe, parasite or virus in culture; conditions: H3N2, MDCK
# Influenza B virus = test: microbe, parasite or virus in culture; conditions: MDCK
Structure (SMILES),MCC [4] [µM],MCC [6] [µM],MCC [7] [µM],EC50 (Human alphaherpesvirus 1 [8]) [µM],EC50 (Human alphaherpesvirus 2) [µM],EC50 (Human alphaherpesvirus 1 [9]) [µM],EC50 (Human orthopneumovirus) [µM],EC50 [11] [µM],EC50 (Sindbis virus) [µM],EC50 (Coxsackievirus [12]) [µM],EC50 (Human betaherpesvirus 5 [13]) [µM],EC50 (Human betaherpesvirus 5 [14]) [µM],EC50 (Human alphaherpesvirus 3 [15]) [µM],EC50 (Human alphaherpesvirus 3 [16]) [µM],CC50 [18] [µM],EC50 (Vaccinia virus) [µM],EC50 [21] [µM],EC50 (Influenza A virus [23]) [µM],EC50 (Influenza A virus [24]) [µM],EC50 (Influenza B virus) [µM],further results
CSc1nc(NCCCCNc2ccnc3cc(Cl)ccc23)c(C#N)c(-c2ccc(C)cc2)n1,20,100,20,> 4,> 4,> 4,> 20,> 4,> 4,> 4,> 4,> 4,> 4,> 4,9.9,> 4,> 4,> 4,> 4,> 4,Ratio IC50 (Plasmodium falciparum [1]): 4.54; IC50 (L1210): 4.3 µM; IC50 (CCRF-CEM): 4.9 µM; IC50 (HeLa): 5 µM; selectivity ratio [2]: 41.9; selectivity ratio [3]: 9.2; CC50 [5]: 8.2 µM; EC50 (unidentified adenovirus): > 4 µM; EC50 (Coxsackievirus [10]): > 20 µM; EC50 (Human respirovirus 3): > 4 µM; EC50 (Punta Toro virus): > 4 µM; MCC [17]: 20 µM; IC50 (Plasmodium falciparum [19]): 119 nM; IC50 (Plasmodium falciparum [20]): 543 nM; EC50 [22]: > 20 µM
CCN(CC)CCCC(C)Nc1ccnc2cc(Cl)ccc12 (stereo not drawn) [CHLOROQUINE],≥ 20,> 100,> 100,> 20,> 20,> 20,> 100,> 100,> 100,> 100,> 20,> 4,> 4,> 4,55.6,> 20,> 20,> 20,> 20,> 20,IC50 (L1210): 15 µM; IC50 (CCRF-CEM): 23 µM; IC50 (HeLa): 18 µM; CC50 [5]: 58.5 µM; EC50 (unidentified adenovirus): > 20 µM; EC50 (Coxsackievirus [10]): > 100 µM; EC50 (Human respirovirus 3): > 100 µM; EC50 (Punta Toro virus): > 100 µM; MCC [17]: 100 µM; EC50 [22]: > 100 µM
N#Cc1c(NCCCCNc2ccnc3cc(Cl)ccc23)nc(N2CCOCC2)nc1-c1ccccc1,20,20,20,> 4,> 4,> 4,> 4,> 4,> 4,> 4,> 4,> 4,> 4,> 4,10.9,> 4,> 4,> 4,> 4,> 4,Ratio IC50 (Plasmodium falciparum [1]): 1.95; IC50 (L1210): 4.2 µM; IC50 (CCRF-CEM): 4.6 µM; IC50 (HeLa): 17 µM; selectivity ratio [2]: 86.3; selectivity ratio [3]: 44; CC50 [5]: 11.9 µM; EC50 (unidentified adenovirus): > 4 µM; EC50 (Coxsackievirus [10]): > 4 µM; EC50 (Human respirovirus 3): > 4 µM; EC50 (Punta Toro virus): > 4 µM; MCC [17]: 20 µM; IC50 (Plasmodium falciparum [19]): 198 nM; IC50 (Plasmodium falciparum [20]): 386 nM; EC50 [22]: > 4 µM
Nc1nc2c(ncn2COCCO)c(=O)[nH]1 [ACYCLOVIR],250 to 400,–,–,0.2,0.1,10,–,–,–,–,1.24,0.51,1.69,49.3,–,> 250,> 250,–,–,–,–
COc1ccc(-c2nc(SC)nc(NCCCCNc3ccnc4cc(Cl)ccc34)c2C#N)cc1,4 to 20,20,20,> 0.8,> 0.8,> 0.8,> 4,> 4,> 4,> 4,> 4,> 4,> 4,> 4,10,> 0.8,> 0.8,> 4,> 4,> 4,Ratio IC50 (Plasmodium falciparum [1]): 13.92; IC50 (L1210): 3.2 µM; IC50 (CCRF-CEM): 2.7 µM; IC50 (HeLa): 3.4 µM; selectivity ratio [2]: 30.9; selectivity ratio [3]: 2.2; CC50 [5]: 7.9 µM; EC50 (unidentified adenovirus): > 4 µM; EC50 (Coxsackievirus [10]): > 4 µM; EC50 (Human respirovirus 3): > 4 µM; EC50 (Punta Toro virus): > 4 µM; MCC [17]: 20 µM; IC50 (Plasmodium falciparum [19]): 110 nM; IC50 (Plasmodium falciparum [20]): 1530 nM; EC50 [22]: > 4 µM
CSc1nc(-c2ccc([N+](=O)[O-])cc2)c(C#N)c(N2CCN(c3ccnc4cc(Cl)ccc34)CC2)n1,≥ 100,> 100,100,> 100,> 100,> 100,> 100,> 20,> 20,> 20,> 100,> 100,> 100,> 100,> 100,> 100,> 100,> 100,> 100,> 100,Ratio IC50 (Plasmodium falciparum [1]): 0.8; IC50 (L1210): 206 µM; IC50 (CCRF-CEM): 156 µM; IC50 (HeLa): 228 µM; selectivity ratio [2]: 18.6; selectivity ratio [3]: 23.1; CC50 [5]: > 100 µM; EC50 (unidentified adenovirus): > 100 µM; EC50 (Coxsackievirus [10]): > 100 µM; EC50 (Human respirovirus 3): > 20 µM; EC50 (Punta Toro virus): > 20 µM; MCC [17]: > 100 µM; IC50 (Plasmodium falciparum [19]): 12200 nM; IC50 (Plasmodium falciparum [20]): 9860 nM; EC50 [22]: > 100 µM
NC(=O)c1ncn([C@@H]2O[C@H](CO)[C@@H](O)[C@H]2O)n1 [RIBAVIRIN],–,> 250,> 250,–,–,–,10,> 250,> 250,250,–,–,–,–,100,–,–,7.2 to 9,6.9 to 9,4 to 4.5,–
C[C@H]1[C@H](OC(=O)CCC(=O)O)O[C@@H]2O[C@@]3(C)CC[C@H]4[C@H](C)CC[C@@H]1[C@@]24OO3 [ARTESUNATE],–,–,–,–,–,–,–,–,–,–,–,–,–,–,–,–,–,–,–,–,Ratio IC50 (Plasmodium falciparum [1]): 1.38; IC50 (Plasmodium falciparum [19]): 12.6 nM; IC50 (Plasmodium falciparum [20]): 17.4 nM

# Reference: ChEMBL document CHEMBL4000146, “Synthesis, antiplasmodial activity and mechanistic studies of pyrimidine-5-carbonitrile and quinoline hybrids” (Eur J Med Chem, 2015)
